Source: patent US6060608A, “Analogs of CC-1065 and the duocarmycins” (The Scripps Research Institute, priority 1999, dated 2000)
Read-outs that look alike come from different tables or passages of the source.

Assays:
[1] = tested on: L1210; assay: In vitro cytotoxic activity, L1210; conditions: for cytotoxic activity, ring opened precursor 115 versus cyclopropane 116: L1210; for IC50: Mus musculus, L1210, read-out: cytotoxic activity IC50
[2] = tested on: w794 duplex DNA; assay: DNA alkylation selectivity and efficiency within w794 DNA, thermally-induced strand cleavage and PAGE; assay type: biochemical, SV40; conditions: for DNA alkylation efficiency, natural/unnatural enantiomer ratio: (+)/ent-(-)
Excerpt: DNA Alkylation Selectivity and Efficiency. The DNA alkylation properties of the agents were examined within w794 duplex DNA, a 144 base-pair segment of duplex DNA for which comparative results are available for related agents. The alkylation site identification and the assessment of the relative selectivity among the available sites were obtained by thermally-induced strand cleavage of the singly 5' end-labeled duplex DNA after exposure to the agents. Following treatment of the end-labeled duplex DNA with a range of agent concentrations, the unbound agent was removed by EtOH precipitation of the DNA. Redissolution of the DNA in aqueous buffer, thermolysis (100° C., 30 min) to induce strand cleavage at the sites of DNA alkylation, denaturing high resolution polyacrylamide gel electrophoresis (PAGE) adjacent to Sanger dideoxynucleotide sequencing standards, and autoradiography led to identification of the DNA cleavage and alkylation sites. The DNA alkylation reaction selectivities observed under the incubation conditions for the agents detailed herein have proven identical to the alkylation selectivities observed with shorter or extended reaction periods or when the reactions were conducted at different temperatures (37 or 4° C., 0.5-7 d). As discussed below, the rates and efficiencies but not final relative efficiencies of DNA alkylation were altered by changing the reaction temperatures.
DNA Alkylation Properties. […] The DNA alkylation reaction was examined within w794 DNA for which comparative results are available for past agents. The alkylation site identification was obtained by thermal strand cleavage of the singly 5' end-labeled duplex DNA after exposure to the agents. Following treatment of the labeled DNA with a range of agent concentrations, the unbound agent was removed by EtOH precipitation of the DNA. Redissolution of the DNA in aqueous buffer, thermolysis at 100° C. (30 min) to induce depurination and strand cleavage at the adenine N3 or guanine N3 minor groove alkylation sites, denaturing high resolution PAGE adjacent to Sanger sequencing standards and autoradiography provided the DNA cleavage and alkylation sites.
DNA Alkylation Studies: selectivity and Efficiency. General procedures, the preparation of singly ^32 P 5' end-labeled double stranded DNA, the agent binding studies, gel electrophoresis, and autoradiography were conducted according to standard procedures. Eppendorf tubes containing the 5' end-labeled DNA (9 μL) in TE buffer (10 mM Tris, 1 mM EDTA, pH 7.5) were treated with the agent in DMSO (1 μL at the specified concentration). The solution was mixed by vortexing and brief centrifugation and subsequently incubated at 4 or 25° C. for 24 h (natural enantiomers) and 25 or 37° C. (unnatural enantiomers) for 72 h. The covalently modified DNA was separated from unbound agent by EtOH precipitation and resuspended in TE buffer (10 μL). The solution of DNA in an Eppendorf tube sealed with parafilm was warmed at 100° C. for 30 min to induce cleavage at the alkylation sites, allowed to cool to 25° C. and centrifuged. Formamide dye (0.03% xylene cyanol FF, 0.03% bromophenol blue, 8.7% Na2 EDTA 250 mM) was added (5 μL) to the supernatant. Prior to electrophoresis, the sample was denatured by warming at 100° C. for 5 min, placed in an icebath, and centrifuged, and the supernatant (3 μL) was loaded directly onto the gel. Sanger dideoxynucleotide sequencing reactions were run as standards adjacent to the reaction samples. Polyacrylamide gel electrophoresis (PAGE) was run on an 8% sequencing gel under denaturing conditions (8 M urea) in TBE buffer (100 mM Tris, 100 mM boric acid, 0.2 mM Na2 EDTA) followed by autoradiography.
DNA Alkylation of w794 DNA. Eppendorf tubes containing the 5'-end labeled DNA (9 μL) in TE buffer (10 mM Tris, 1 mM EDTA, pH 7.2) were treated with the agent in DMSO (1 μL at the specified concentration). […]

[3] = Aqueous solvolysis reactivity followed by UV; assay type: physicochemical
Method: The reactivity of 217-219 was assessed by following the solvolysis spectrophotometrically by UV at both pH 3 (50% CH3 OH-buffer, buffer=4:1:20 (v/v/v) 0.1 M citric acid, 0.2 M Na2 HPO4, H2 O) and pH 7 (1:1 H2 O--CH3 OH) measuring both the disappearance of the long-wavelength absorption band of the F2 CBI chromophore and the appearance of a short-wavelength absorption band attributable to the ring open products (FIG. 31).
Aqueous Solvolysis Reactivity. pH 3: N-BOC-CCBI (25, 100 μg) was dissolved in CH3 OH (1.5 mL) and mixed with pH 3 aqueous buffer (1.5 mL). The buffer contained 4:1:20 (v:v:v) 0.1 M citric acid, 0.2 M Na2 HPO4 and H2 O, respectively. The solvolysis solution was sealed and kept at 25° C. protected from light. The UV spectrum was measured at regular intervals every 2 h during the first day, every 12 h for another week, and every 24 h for an additional week. The decrease in the long-wavelength absorption at 322 nm and the increase in the short-wavelength absorption at 268 nm were monitored, FIG. 1.
pH 2: Samples of 25 (100 μg) and 26 (50 μg) were dissolved in CH3 OH (1.5 mL) and the solutions were mixed with aqueous buffer (pH 2.05, 1.5 mL). The buffer contained 4:1:20 (v:v:v) 1.0 M citric acid, 0.2 M Na2 HPO4, and H2 O, respectively. Immediately after mixing, the UV spectra of the solutions were measured against a reference solution containing CH3 OH (1.5 mL) and the aqueous buffer (1.5 mL) and these readings were used for the initial absorbance values. The solutions were stoppered, protected from the light, and allowed to stand at 25° C. UV spectra were recorded at regular intervals until constant values were obtained for the long and short wavelength absorbances. The solvolysis rate constants were determined from the slope of the lines obtained from linear least squares treatment of plots of ln[(Af -Ai)/(Af -A)] versus time using the short wavelength measurements for 25 and long wavelength measurements for 26).

[4] = natural enantiomers, 37° C., 72 h

## N#Cc1ccc2c(O)cc3c(c2c1)C(CCl)CN3C(=O)c1cc2c3c(ccc2[nH]1)N(C(N)=O)CC3 (stereo not drawn) [compound 38]
[1]
  cytotoxic activity of seco precursors versus cyclopropane containing agents: indistinguishable from the cyclopropane containing agents

## COc1ccc2c(c1)C13CC1CN(C(=O)OC(C)(C)C)C3=CC2=O (single isomer, unassigned; (+)) [(+)-N-BOC-MCBI, reference compound]
[2]
  DNA alkylation efficiency, natural/unnatural enantiomer ratio: 1-2 ×

## CC(C)(C)OC(=O)N1CC2CC23C1=CC(=O)c1ccccc13 (single isomer, unassigned; (+)) [(+)-N-BOC-CBI, reference compound]
[2]
  DNA alkylation efficiency, natural/unnatural enantiomer ratio: 5-10 ×

## N#Cc1ccc2c(c1)C13CC1CN(C(=O)c1cc4c5c(ccc4[nH]1)N(C(N)=O)CC5)C3=CC2=O (single isomer, unassigned) [compound 39]
[2]
  DNA alkylation sequence selectivity: strong preference but not absolute requirement for the fourth 5' base to be A or T versus G or C

## CC(C)(C)OC(=O)N1C[C@H]2C[C@@]23C1=CC(=O)c1ccc(C#N)cc13 [(+)-N-BOC-CCBI, N-(tert-Butyloxycarbonyl)-7-cyano-1,2,9,9a-tetrahydrocyclopropa[c]benz[e]indol-4-one]
[2]
  DNA alkylation efficiency, natural/unnatural enantiomer ratio: 1-2 ×

## COC(=O)c1cc2c([nH]1)C(=O)C=C1N(C(=O)c3cc4cc(OC)c(OC)c(OC)c4[nH]3)CC3CC123 (single isomer, unassigned) [ent-(-)-duocarmycin SA (2), reference compound]
[2]
  DNA alkylation properties, comparison in words: slightly more effective

## CCOC(=O)CCC(=O)N1CC2CC23C1=CC(=O)c1ccccc13 (stereo not drawn) [compound 116, N^2-(4-ethoxy-1,4-dioxobutyl)-1,2,9,9a-tetrahydrocyclopropa[c]benz[e]indole-4-one]
[1]
  cytotoxic activity, ring opened precursor 115 versus cyclopropane 116: no distinctions were observed
  IC50: 5 to 6 nM
[2]; natural enantiomer
  more effective at alkylating DNA than N-BOC-CBI (123): 10-100 ×

## COc1cc2cc(C(=O)N3C[C@H]4C[C@@]45C3=CC(=O)c3ccc(C#N)cc35)[nH]c2c(OC)c1OC [(+)-CCBI-TMI (35)]
[2]
  DNA alkylation properties, comparison in words: exhibited the same selectivity and efficiency of DNA alkylation
[2]; 25° C., 24 h
  concentration of detectable alkylation of high affinity site 5'-AATTA: 10^-6 to 10^-7 M

## CCOC(=O)C(=O)N1CC(CCl)c2c1cc(O)c1ccccc21 (stereo not drawn) [compound 114, 1-Chloromethyl-3-(2-ethoxy-1,2-dioxoethyl)-5-hydroxy-1,2-dihydro-3H-benz[e]indole]
[2]
  DNA alkylation properties, comparison in words: more effective

## COc1cc2cc(C(=O)N3C[C@@H]4C[C@]45C3=CC(=O)c3ccc(C#N)cc35)[nH]c2c(OC)c1OC [ent-(-)-CCBI-TMI (35)]
[2]
  DNA alkylation properties, comparison in words: nearly indistinguishable
[2]; listed as (-)-CCBI-TMI
  DNA alkylation properties, comparison in words: (-)-CCBI-indole2 >(-)-CCBI-CDPI1>(-)-CCBI-TMI

## CC(=O)N1CC2C(F)(F)C23C1=CC(=O)c1ccccc13 (stereo not drawn) [compound 217]
[3]
  solvolysis reactivity relative to corresponding CBI agent lacking the two fluorines: 500 ×
  solvolysis stability/reactivity: No substantial distinction in the reactivity of 217 and 219 was observed

## N#Cc1ccc2c(c1)C13CC1CNC3=CC2=O (stereo not drawn) [compound 26, 7-Cyano-1,2,9,9a-tetrahydrocyclopropa[c]benz[e]indol-4-one]
[3]; ch3oh-buffer 1:1, pH 2
  half-life: 91.5 h

## O=C1C=C2NCC3C(F)(F)C23c2ccccc21 (stereo not drawn) [compound 218, 9,9-difluoro-1,2,9,9a-tetrahydrocyclopropa[c]benzo[e]indol-4-one]
[3]
  solvolysis reactivity relative to corresponding CBI agent lacking the two fluorines: approximately 220 ×
[3]; 50% ch3oh-buffer, pH 3
  half-life: 4.2 h
[3]; pH 3, 50% CH3OH-buffer
  solvolysis rate constant k: 4.54e-05 s⁻¹

## COc1cc2cc(C(=O)N3CC4C(F)(F)C45C3=CC(=O)c3ccccc35)[nH]c2c(OC)c1OC (racemic) [compound 224]
[2]
  DNA alkylation properties, comparison in words: steadily increase as the temperature was decreased from 37 to 25 to 4 °C
[2]; listed as F2 CBI-TMI
  DNA alkylation sequence selectivity: only adenine N3 alkylation was detected
[2]; racemic
  DNA alkylation less efficient than CBI-TMI: 100-1000 ×
[2]; racemic F2 CBI-TMI versus (+)-CBI-TMI
  DNA alkylation less efficient, by densitometry, average of several comparisons: 675-725 ×

## COc1ccc2c(c1)C13CC1CN(C(=O)OC(C)(C)C)C3=CC2=O (stereo not drawn) [N-BOC-MCBI, reference compound]
[1]; N-BOC derivatives
  relative cytotoxic potency of natural versus unnatural enantiomers: 2 ×
[2]; [4]
  concentration at which DNA alkylation is detectable: 10^-3 M
  concentration at which DNA alkylation is prominent: 10^-2 M

## N#Cc1ccc2c(c1)[C@]13C[C@H]1CN(C(=O)c1cc4cc(NC(=O)c5cc6ccccc6[nH]5)ccc4[nH]1)C3=CC2=O [(-)-CCBI-indole2]
[2]
  DNA alkylation properties, comparison in words: (-)-CCBI-indole2 >(-)-CCBI-CDPI1>(-)-CCBI-TMI

## CC(C)(C)OC(=O)N1CC(CCl)c2c1cc(O)c1ccc(C#N)cc21 (stereo not drawn) [compound 23, 3-(tert-Butyloxycarbonyl)-1-(chloromethyl)-8-cyano-5-hydroxy-1,2-dihydro-3H-benz[e]indole]
[1]
  cytotoxic activity of seco precursors versus cyclopropane containing agents: indistinguishable from the cyclopropane containing agents

## N#Cc1ccc2c(c1)[C@]13C[C@H]1CN(C(=O)c1cc4c5c(ccc4[nH]1)N(C(N)=O)CC5)C3=CC2=O [(-)-CCBI-CDPI1]
[2]
  DNA alkylation properties, comparison in words: (-)-CCBI-indole2 >(-)-CCBI-CDPI1>(-)-CCBI-TMI

## CCOC(=O)CCC(=O)N1CC(CCl)c2c1cc(O)c1ccccc21 (stereo not drawn) [compound 115, 1-Chloromethyl-3-(4-ethoxy-1,4-dioxobutyl)-5-hydroxy-1,2-dihydro-3H-benz[e]indole]
[1]
  cytotoxic activity, ring opened precursor 115 versus cyclopropane 116: no distinctions were observed
  IC50: 5 to 6 nM

## N#Cc1ccc2c(O)cc3c(c2c1)C(CCl)CN3C(=O)c1cc2cc(NC(=O)c3cc4ccccc4[nH]3)ccc2[nH]1 (stereo not drawn) [compound 36]
[1]
  cytotoxic activity of seco precursors versus cyclopropane containing agents: indistinguishable from the cyclopropane containing agents

## COc1cc2cc(C(=O)N3CC(CCl)c4c3cc(O)c3ccc(C#N)cc43)[nH]c2c(OC)c1OC (stereo not drawn) [compound 34]
[1]
  cytotoxic activity of seco precursors versus cyclopropane containing agents: indistinguishable from the cyclopropane containing agents

## CC(C)(C)OC(=O)N1CC2C(F)(F)C23C1=CC(=O)c1ccccc13 (stereo not drawn) [compound 219]
[3]
  solvolysis stability/reactivity: No substantial distinction in the reactivity of 217 and 219 was observed
[3]; 1:1 h2o-ch3oh, pH 7
  half-life: 2.33 h
[3]; 50% ch3oh-buffer, pH 3
  half-life: 0.26 h
[3]; pH 3, 50% CH3OH-buffer
  solvolysis rate constant k: 0.000705 s⁻¹
[3]; pH 7, 1:1 H2O-CH3OH
  solvolysis rate constant k: 8.27e-05 s⁻¹
